The record followed here is US9957271B2, “Substituted bicyclic aza-heterocycles and analogues as sirtuin modulators” (GlaxoSmithKline, LLC, priority 2012, dated 2018).

Experiment [1] deals with T1, SIRT1 (Homo sapiens, UniProt Q96EB6).
T1 sequence (Q96EB6 1-747): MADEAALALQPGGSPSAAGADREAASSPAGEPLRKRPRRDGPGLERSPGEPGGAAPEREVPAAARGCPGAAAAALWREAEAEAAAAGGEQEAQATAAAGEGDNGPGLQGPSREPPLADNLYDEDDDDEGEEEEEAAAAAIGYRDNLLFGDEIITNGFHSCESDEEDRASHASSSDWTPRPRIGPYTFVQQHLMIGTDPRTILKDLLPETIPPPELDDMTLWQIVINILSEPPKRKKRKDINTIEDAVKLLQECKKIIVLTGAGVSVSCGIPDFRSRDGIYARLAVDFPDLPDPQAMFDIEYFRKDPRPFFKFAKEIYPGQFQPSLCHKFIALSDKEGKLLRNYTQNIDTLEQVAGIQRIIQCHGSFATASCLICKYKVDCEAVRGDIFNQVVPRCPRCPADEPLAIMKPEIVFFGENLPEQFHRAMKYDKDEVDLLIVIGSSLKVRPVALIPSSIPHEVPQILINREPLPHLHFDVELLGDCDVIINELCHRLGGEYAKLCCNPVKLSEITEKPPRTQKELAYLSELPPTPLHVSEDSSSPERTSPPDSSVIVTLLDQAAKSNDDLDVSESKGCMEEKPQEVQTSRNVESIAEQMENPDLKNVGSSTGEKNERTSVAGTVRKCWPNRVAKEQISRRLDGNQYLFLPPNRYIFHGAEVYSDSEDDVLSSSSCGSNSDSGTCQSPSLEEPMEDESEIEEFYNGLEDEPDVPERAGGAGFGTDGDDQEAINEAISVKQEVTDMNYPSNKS
As to the kind of experiment: Trp mass spectrometry assay of SIRT1 activity. As to conditions: Trp assay; for Trp EC1.5 (μM): concentration giving 150% activation of SIRT1; for Emax: percent maximum fold activation, read-out: Trp % Fold Act. Type of experiment: biochemical. The text has this:
Mass spectrometry based assays were used to identify modulators of SIRT1 activity. The TAMRA based assay utilized a peptide having 20 amino acid residues as follows: Ac-EE-K(biotin)-[…](Ac)NleSTEG-K(5TMR)-EE-NH2 (SEQ ID NO: 1), wherein K(Ac) is an acetylated lysine residue and Nle is a norleucine. The peptide was labeled with the fluorophore 5TMR (excitation 540 nm/emission 580 nm) at the C-terminus. The sequence of the peptide substrate was based on p53 with several modifications. In addition, the methionine residue naturally present in the sequence was replaced with the norleucine because the methionine may be susceptible to oxidation during synthesis and purification. The Trp based assay utilized a peptide having an amino acid residues as follows: Ac-R-H-K-K(Ac)-W-NH2 (SEQ ID NO: 2).
The Trp mass spectrometry assay was conducted as follows. 0.5 μM peptide substrate and 120 μM βNAD^+ were incubated with 10 nM SIRT1 for 25 minutes at 25° C. in a reaction buffer (50 mM HEPES pH 7.5, […], 1 mM DTT, 0.05% BSA). The SIRT1 protein was obtained by cloning the SirT1 gene into a T7-promoter containing vector, which was then expressed in BL21(DE3) bacterial cells and purified as described in further detail below. Test compound was added at varying concentrations to this reaction mixture and the resulting reactions were monitored. After the 25 minute incubation with SIRT1, 10 μL of 10% formic acid was added to stop the reaction. The resulting reactions were sealed and frozen for later mass spec analysis. The relative SIRT1 activity was then determined by measuring the amount of O-acetyl-ADP-ribose (OAADPR) formed (or, alternatively, the amount of deacetylated Trp peptide generated) by the NAD-dependent sirtuin deacetylation reaction in the presence of varying concentrations of the test compound versus control reactions lacking the test compound. The degree to which the test agent activated deacetylation by SIRT1 was expressed as EC1.5 (i.e., the concentration of compound required to increase SIRT1 activity by 50% over the control lacking test compound), and Percent Maximum Activation (i.e., the maximum activity relative to control (100%) obtained for the test compound).
A control for inhibition of sirtuin activity was conducted by adding 1 μL of 500 mM nicotinamide as a negative control at the start of the reaction (e.g., permits determination of maximum sirtuin inhibition). A control for activation of sirtuin activity was conducted using 10 nM of sirtuin protein, with 1 μL of DMSO in place of compound, to determine the amount of deacetylation of the substrate at a given time point within the linear range of the assay. This time point was the same as that used for test compounds and, within the linear range, the endpoint represents a change in velocity.
For the above assay, SIRT1 protein was expressed and purified as follows. The SirT1 gene was cloned into a T7-promoter containing vector and transformed into BL21(DE3). The protein was expressed by induction with 1 mM IPTG as an N-terminal His-tag fusion protein at 18° C. overnight and harvested at 30,000×g. Cells were lysed with lysozyme in lysis buffer (50 mM Tris-HCl, 2 mM Tris[2-carboxyethyl]phosphine (TCEP), 10 μM ZnCl2, 200 mM NaCl) and further treated with sonication for […] for complete lysis. The protein was purified over a Ni-NTA column (Amersham) and fractions containing pure protein were pooled, concentrated and run over a sizing column (Sephadex S200 26/60 global). The peak containing soluble protein was collected and run on an Ion-exchange column (MonoQ). Gradient elution (200 mM-500 mM NaCl) yielded pure protein. This protein was concentrated and dialyzed against dialysis buffer (20 mM Tris-HCl, 2 mM TCEP) overnight. The protein was aliquoted and frozen at −80° C. until further use.

The target in experiment [2] is T1, SIRT1. The experiment in a line: TAMRA based mass spectrometry assay of SIRT1 activity. The format is biochemical. As to conditions: TAMRA assay; for TAMRA EC1.5 (μM): concentration giving 150% activation of SIRT1; for Emax: percent maximum fold activation, read-out: TAMRA % Fold Act. The method, boiled down: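 Recombinant N-terminal His-tagged human SIRT1 (10 nM, E. coli) incubated 25 min at 25 °C with 0.5 μM 5TMR-labelled p53-derived acetyl-peptide and 120 μM βNAD+ in Tris-acetate pH 8 buffer with DTT and 0.05% BSA, compound at varying concentrations. Stopped with formic acid; deacetylated peptide or OAADPR measured by mass spectrometry relative to DMSO controls.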

With `O=C(Nc1cnc2ccc(-c3ccccc3OC(F)(F)F)nn12)c1cnccn1` [Compound 314], on SIRT1 [1], the “Trp EC1.5 (μM)” value is “B (EC1.5 1-25 μM)” and the Emax was less than 350%.
For the compound `O=C(Nc1cnn2ccc(-c3ccccc3C(F)(F)F)nc12)c1nc2c(s1)CCCC2` [Compound 810], on SIRT1 [2], the “TAMRA EC1.5 (μM)” value is given as “A (EC1.5<1 μM)” and the Emax was not below 350%.
Consider `Cc1ccnc(NC(=O)c2cnc3ccc(-c4ccccc4OC[C@H](O)CO)nn23)c1` [Compound 811], for which, at SIRT1 [2], the “TAMRA EC1.5 (μM)” value is reported as “A (EC1.5<1 μM)” and the Emax was not below 350%.
The corresponding values for `O=C(Nc1cc(O)ncn1)c1cnn2ccc(-c3ccccc3C(F)(F)F)nc12` [Compound 813] are “A (EC1.5<1 μM)” and not below 350%.
The corresponding values for `Cc1ccnc(NC(=O)c2c(C)nc3ccc(-c4ccccc4OC[C@H](O)CO)nn23)c1` [Compound 817] are “A (EC1.5<1 μM)” and not below 350%.
The corresponding values for `Cc1nc2ccc(-c3ccccc3OC[C@H](O)CO)nn2c1C(=O)Nc1ccc(F)cn1` [Compound 819] are “A (EC1.5<1 μM)” and not below 350%.
Turning to `Cc1nc2ccc(-c3cccc(OC[C@H](O)CO)c3)nn2c1C(=O)Nc1ccncc1F` [Compound 822], at SIRT1 [2], the “TAMRA EC1.5 (μM)” value is given as “A (EC1.5<1 μM)” and the Emax is less than 350%.
`Cc1cc(C)nc(NC(=O)c2c(C)nc3c(OC[C@H](O)CO)cc(-c4ccccc4C(F)(F)F)nn23)c1` [Compound 834]: at SIRT1 [1], the “Trp EC1.5 (μM)” value is listed as “A (EC1.5<1 μM)” and the Emax was not below 350%.
The corresponding values for `Cc1nc2c(OC[C@H](O)CO)cc(-c3ccccc3C(F)(F)F)nn2c1C(=O)Nc1ccc(F)cn1` [Compound 835] are “A (EC1.5<1 μM)” and not below 350%.
The corresponding values for `O=C(Nc1ccccn1)c1cnc2ccc(N3CC[C@H](F)C3)nn12` [Compound 836] are “B (EC1.5 1-25 μM)” and not below 350%.
The corresponding values for `O=C(Nc1cccnc1)c1cnc2ccc(N3CC[C@H](F)C3)nn12` [Compound 837] are “B (EC1.5 1-25 μM)” and less than 350%.
For `O=C(Nc1ccc(F)cn1)c1cnc2ccc(N3CC[C@H](F)C3)nn12` [Compound 838], at SIRT1 [1], the “Trp EC1.5 (μM)” value is reported as “B (EC1.5 1-25 μM)” and the Emax was less than 350%.
On to `O=C(Nc1ccncc1F)c1cnc2ccc(N3CC[C@H](F)C3)nn12` [Compound 839], for which, at SIRT1 [1], the “Trp EC1.5 (μM)” value was “B (EC1.5 1-25 μM)” and the Emax is less than 350%.
The corresponding values for `Cc1nc2ccc(N3CC[C@H](F)C3)nn2c1C(=O)Nc1ccccn1` [Compound 840] are “B (EC1.5 1-25 μM)” and not below 350%.
The corresponding values for `Cc1nc2ccc(N3CC[C@H](F)C3)nn2c1C(=O)Nc1cccnc1` [Compound 841] are “A (EC1.5<1 μM)” and not below 350%.
The corresponding values for `Cc1nc2c(OC[C@H](O)CO)cc(-c3ccccc3C(F)(F)F)nn2c1C(=O)Nc1ccccn1` [Compound 842] are “A (EC1.5<1 μM)” and not below 350%.
As to `Cc1nc2c(OC[C@H](O)CO)cc(-c3ccccc3C(F)(F)F)nn2c1C(=O)Nc1ccncc1F` [Compound 843], at SIRT1 [1], the “Trp EC1.5 (μM)” value is reported as “A (EC1.5<1 μM)” and the Emax was not below 350%.
Turning to `Cc1nc2ccc(N3CC[C@H](F)C3)nn2c1C(=O)Nc1ccc(F)cn1` [Compound 844], on SIRT1 [1], the “Trp EC1.5 (μM)” value was “B (EC1.5 1-25 μM)” and the Emax was less than 350%.
For the compound `Cc1nc2ccc(N3CC[C@H](F)C3)nn2c1C(=O)Nc1cnccn1` [Compound 845], at SIRT1 [1], the “Trp EC1.5 (μM)” value is on record as “B (EC1.5 1-25 μM)” and the Emax is less than 350%.
The corresponding values for `Cc1nc2ccc(N3CC[C@H](F)C3)nn2c1C(=O)Nc1ccncc1F` [Compound 846] are “A (EC1.5<1 μM)” and less than 350%.
The corresponding values for `O=C(Nc1ccccn1)c1cnc2ccc(-c3cccc(OC[C@H](O)CO)c3)nn12` [Compound 847] are “A (EC1.5<1 μM)” and not below 350%.
The corresponding values for `Cc1cccc(NC(=O)c2cnc3ccc(-c4cccc(OC[C@H](O)CO)c4)nn23)n1` [Compound 848] are “A (EC1.5<1 μM)” and not below 350%.
As for `Cc1cccc(NC(=O)c2c(C)nc3c(OC[C@H](O)CO)cc(-c4ccccc4C(F)(F)F)nn23)n1` [Compound 849], on SIRT1 [1], the “Trp EC1.5 (μM)” value is listed as “A (EC1.5<1 μM)” and the Emax is not below 350%.
On to `Cc1cc(NC(=O)c2c(C)nc3c(OC[C@H](O)CO)cc(-c4ccccc4C(F)(F)F)nn23)nc(C)n1` [Compound 850], for which, on SIRT1 [1], the “Trp EC1.5 (μM)” value is listed as “A (EC1.5<1 μM)” and the Emax is not below 350%.
The corresponding values for `O=C(Nc1ccncn1)c1cnc2ccc(N3CC[C@H](F)C3)nn12` [Compound 851] are “B (EC1.5 1-25 μM)” and less than 350%.
The corresponding values for `Cc1nc2ccc(N3CC[C@H](F)C3)nn2c1C(=O)Nc1ncccn1` [Compound 852] are “B (EC1.5 1-25 μM)” and not below 350%.
For the compound `O=C(Nc1cnccn1)c1cnc2ccc(N3CC[C@H](F)C3)nn12` [Compound 853], at SIRT1 [1], the “Trp EC1.5 (μM)” value was “C (EC1.5>25 μM)” and the Emax is less than 350%.
Consider `O=C(Nc1ncccn1)c1cnc2ccc(N3CC[C@H](F)C3)nn12` [Compound 854], for which, on SIRT1 [1], the “Trp EC1.5 (μM)” value was “B (EC1.5 1-25 μM)” and the Emax is less than 350%.
The corresponding values for `Cc1nc2ccc(N3CC[C@H](F)C3)nn2c1C(=O)Nc1ccncn1` [Compound 855] are “B (EC1.5 1-25 μM)” and not below 350%.
The corresponding values for `O=C(Nc1cccnn1)c1cnc2ccc(N3CC[C@H](F)C3)nn12` [Compound 856] are “B (EC1.5 1-25 μM)” and less than 350%.
The corresponding values for `Cc1nc2ccc(N3CC[C@H](F)C3)nn2c1C(=O)Nc1cccnn1` [Compound 857] are “A (EC1.5<1 μM)” and not below 350%.
As to `O=C(Nc1cccnc1)c1cnc2ccc(-c3cccc(OC[C@H](O)CO)c3)nn12` [Compound 858], at SIRT1 [1], the “Trp EC1.5 (μM)” value is “B (EC1.5 1-25 μM)” and the Emax is less than 350%.
